Assay results published in patent publication US7524503B2, “Human cytomegalovirus (HCMV) cytotoxic T cell epitopes, polyepitopes compositions comprising same and diagnostic and prophylactic and therapeutic uses therefor” (priority 2001, dated 2009).

Tests used:
HLA A3 = target: T1, HLA A3 (Homo sapiens, UniProt P04439); experiment: MHC stabilization assay on T2 cells; assay type: cell-based; conditions: HLA A3 on transfected T2 cells; relative increase vs no peptide at 26° C.
T1 construct: EGFP; expressed in transfected cells; host or cells: T2 cells
T1 sequence (P04439 25-365): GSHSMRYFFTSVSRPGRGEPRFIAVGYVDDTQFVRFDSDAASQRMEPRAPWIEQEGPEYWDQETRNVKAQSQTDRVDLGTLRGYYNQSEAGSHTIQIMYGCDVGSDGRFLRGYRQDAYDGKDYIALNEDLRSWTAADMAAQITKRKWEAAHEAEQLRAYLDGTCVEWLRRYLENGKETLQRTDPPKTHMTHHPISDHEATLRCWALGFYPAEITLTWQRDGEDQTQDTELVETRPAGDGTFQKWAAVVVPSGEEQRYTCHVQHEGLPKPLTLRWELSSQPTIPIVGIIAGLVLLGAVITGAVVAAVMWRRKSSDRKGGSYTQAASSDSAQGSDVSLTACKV
T1 sequence (P61769 21-119, further chain): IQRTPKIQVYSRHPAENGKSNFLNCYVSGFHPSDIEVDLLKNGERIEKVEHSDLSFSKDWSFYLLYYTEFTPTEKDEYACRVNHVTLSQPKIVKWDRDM

HLA A24 = experiment: MHC stabilization assay on T2 cells; assay type: cell-based, human; conditions: HLA A24 on transfected T2 cells; relative increase vs no peptide at 26° C.
[1] = system: PBMC from healthy HCMV seropositive donors; experiment: IFN-γ ELISPOT assay; assay type: cell-based, human; conditions: peptide 10 μg/ml
Procedure, shortened: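 IFN-γ-secreting T cells were counted as spots, with no-peptide control wells subtracted and means taken from triplicate wells. These spots came from healthy seropositive carriers' PBMC, 2.5×10^5 per well.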

CD8+ T cells = experiment: CD4+/CD8+ analysis of 20-mer peptides (intracellular IFN-γ staining or depletion ELISPOT); assay type: cell-based, human
Protocol: (§1) To determine whether a particular 20-mer peptide contained either a CD4^+- or CD8^+-restricted epitope, or both, CD4^+/CD8^+ cell depletion ELISPOT assays were performed on PBMC from healthy virus carriers. For any one experiment, three populations of cells were used: a) CD8^+-depleted PBMC, b) CD4^+-depleted PBMC, and c) non-depleted PBMC. These populations of cells were tested concurrently with the same peptides in a conventional ELISPOT assay as described herein above. DYNABEADS M-450 (Dynal, Oslo, Norway) that bound specifically to CD4^+- or CD8^+ cells were used to perform the depletion essentially according to manufacturers instructions. Beads were washed twice in cold PBS supplemented with 2% FCS using magnetic isolation. The requisite number of cells was resuspended in cold PBS supplemented with 2% FCS, added to the beads and then incubated at 4° C., in the dark, for 30 mins (CD8^+ beads) or 60 mins (CD4^+ beads). Populations were depleted of CD4^+ or CD8^+ cells using magnetic separation. After depletion, the non-attached cells were removed and washed once in growth medium, counted and used in conventional ELISPOT assay. Depleted cells were used at 1.7×10^5 cells per well and the non-depleted population was used at the standard 2.5×10^5 cells per well. After the depletion step, each respective cell population was assessed for the purity of CD4^+ and CD8^+ T cells by three-colour flow cytometry. Samples of depleted cell populations were stained with anti-CD3 antibody directly conjugated to fluorescein isothiocyanate (FITC), anti-CD4 antibody conjugated with phycoerythrin (PE) fluorochrome, and anti-CD8 antibody conjugated with Tricolor fluorochrome (described below). The percent of CD3^+/CD4^+ cells present within the CD8^+-depleted population and the percent of CD3^+/CD8^+ cells present within the CD4^+-depleted populations were assessed on FACSCalibur cytometer (Becton Dickinson). The purity of each population was greater than 90% and the results from the ELISPOT assays are expressed as the percentage of CD4+ or CD8^+ cells within the depleted populations that responded toward each peptide by producing IFN-γ.
(§2) PBMCs were incubated at 37° C. in RPMI+10% FCS with and without 10 μg/ml peptides for 6 hours. Golgiplug™ (Pharmingen, San Diego, Calif., USA) was added to the samples according to manufacturer's instructions during the second hour of incubation and cells activated with 25 ng/ml phorbol 12-myristidate 13-acetate (PMA; Sigma-Aldrich Co, St. Louis Mo.) and 1 μg/ml iomomycin (Sigma) acted as a positive control. Following the incubation, 1×10^6 cells/sample were washed and resuspended in staining buffer consisting of PBS with GolgiPlug™, 3% FCS and sodium azide. Cells were then stained with FITC conjugated anti-CD3-FITC (UCHT1, Immunotech, Marseille, France), and either Tricolor (TRI) conjugated anti-CD4 (S3.5, Caltag, Burlingame, Calif.) or anti-CD8 (3B5, Caltag) for 30 minutes, 4° C. in the dark. The cells were fixed for 20 min at 4° C. with Cytofix/Cytoperm™ (BD Biosciences) and resuspended in Perm/Wash™ permeabilization buffer (BD Biosciences) according to manufacturers protocol. Fixed cells were stained with phycoerythrin (PE) conjugated anti-human IFN-γ (B27, Pharmingen) for 30 min at 4° C. in the dark. As a negative control, cells were stained with appropriate isotype matched control antibodies. Cells were washed twice in permeabilization buffer and resuspended in staining buffer before analysis by three-colour flow cytometry on a FACSCalibur cytometer (BD Biosciences). All data analysis was carried out using FlowJo software (Tree Star, Inc. San Carlos, CA).
(§3) When using 20-mer peptides to map epitopes by ELISPOT, it is possible that some responses may be MHC class-II restricted, and not necessarily restricted through HLA class I alleles. It was evident throughout this study that some epitopes identified using ELISPOT could not be confirmed using cytotoxicity analysis. […]

CD4+ T cells = experiment: as above; assay type: cell-based, human
Protocol: as §1, §2, §3

[2] = system: peptide-sensitized autologous PHA blasts or LCLs; assay type: cell-based, human; set-up: key to CTL response: Y: Yes; ND: Not detected; conditions: overlapping 20mer peptides, Table 4

Row | Sequence | MSE (MHC stabilization efficiency) (HLA A3) | MSE (MHC stabilization efficiency) (HLA A24) | other results
1 | AIIGIYLLY (human cytomegalovirus gH CTL epitope peptide) | NT/+++ (+++ = 200-300%) | – | –
2 | ALALFAAAR (human cytomegalovirus gH CTL epitope peptide) | − (− = 0-50%) | – | –
3 | ALTVSEHVSY (human cytomegalovirus gH CTL epitope peptide) | ++ (++ = 100-199%) | – | –
4 | AYEYVDYLF (human cytomegalovirus gB CTL epitope peptide) | – | − (− = 0-50%) | –
5 | AYIYTTYLL (human cytomegalovirus gB CTL epitope peptide) | – | − (− = 0-50%) | –
6 | CYSRPVVIF (human cytomegalovirus gB CTL epitope peptide) | – | − (− = 0-50%) | –
7 | ELLAGGRVF (human cytomegalovirus pp28 CTL epitope peptide) | − (− = 0-50%) | – | –
8 | ELLGRLNVY (human cytomegalovirus pp28 CTL epitope peptide) | − (− = 0-50%) | – | –
9 | ELYLMGSLVH (human cytomegalovirus gH CTL epitope peptide) | − (− = 0-50%) | – | –
10 | EYIVQIQNAF (human cytomegalovirus pp71 CTL epitope peptide) | – | +++ (+++ = 200-300%) | –
11 | GIKHEGLVK (human cytomegalovirus pp28 CTL epitope peptide) | +++ (+++ = 200-300%) | – | –
12 | GVMTRGRLK | +++ (+++ = 200-300%) | – | –
13 | IIYTRNHEVK (human cytomegalovirus IE2 CTL epitope peptide) | +++ (+++ = 200-300%) | – | –
14 | IMREFNSYK (human cytomegalovirus gB CTL epitope peptide) | +++ (+++ = 200-300%) | – | ELISPOT Responses (SFC/10^6 PBMC) ([1]; donor four): MB(202) SFC/10^6 PBMC
15 | KLGGALQAK (human cytomegalovirus IE1 CTL epitope peptide) | +++ (+++ = 200-300%) | – | –
16 | KMTATFLSK (human cytomegalovirus gB CTL epitope peptide) | +++ (+++ = 200-300%) | – | –
17 | KYTQTEEKF (human cytomegalovirus IE1 CTL epitope peptide) | – | − (− = 0-50%) | –
18 | LLLQRGPQY | +++ (+++ = 200-300%) | – | –
19 | LVEPCARVY (human cytomegalovirus pp28 CTL epitope peptide) | NT/++ (++ = 100-199%) | – | –
20 | LVRLVYILSK (human cytomegalovirus gH CTL epitope peptide) | +++ (+++ = 200-300%) | – | –
21 | LYLCCGITL (human cytomegalovirus US6 CTL epitope peptide) | – | − (− = 0-50%) | –
22 | MYMHDSDDVL (human cytomegalovirus gH CTL epitope peptide) | – | − (− = 0-50%) | –
23 | NYLDLSALL (human cytomegalovirus gH CTL epitope peptide) | – | − (− = 0-50%) | –
24 | QLNRHSYLK (human cytomegalovirus gH CTL epitope peptide) | +++ (+++ = 200-300%) | – | –

Row | Sequence | MSE (MHC stabilization efficiency) (HLA A3) | MSE (MHC stabilization efficiency) (HLA A24) | other results
25 | QVIGDQYVK | ++ (++ = 100-199%) | – | –
26 | QYILGADPL (human cytomegalovirus IE1 CTL epitope peptide) | – | +++ (+++ = 200-300%) | –
27 | RLFPDATVP (human cytomegalovirus gH CTL epitope peptide) | − (− = 0-50%) | – | –
28 | RLLDLAPNY (human cytomegalovirus pp28 CTL epitope peptide) | +++ (+++ = 200-300%) | – | –
29 | RLNTYALVSK (human cytomegalovirus gH CTL epitope peptide) | +++ (+++ = 200-300%) | – | –
30 | RVTGGGAMA | − (− = 0-50%) | – | –
31 | SLRNSTVVR (human cytomegalovirus gH CTL epitope peptide) | +++ (+++ = 200-300%) | – | –
32 | SYENKTMQL (human cytomegalovirus gB CTL epitope peptide) | – | − (− = 0-50%) | –
33 | SYLKDSDFL (human cytomegalovirus gH CTL epitope peptide) | – | − (− = 0-50%) | –
34 | SYRSFSQQL (human cytomegalovirus gH CTL epitope peptide) | – | − (− = 0-50%) | –
35 | SYVVTNQYL (human cytomegalovirus gH CTL epitope peptide) | – | − (− = 0-50%) | –
36 | TLLNCAVTK (human cytomegalovirus pp50 CTL epitope peptide) | +++ (+++ = 200-300%) | – | –
37 | TVRSHCVSK (human cytomegalovirus pp50 CTL epitope peptide) | +++ (+++ = 200-300%) | – | –
38 | TYALVSKDL (human cytomegalovirus gH CTL epitope peptide) | – | − (− = 0-50%) | –
39 | TYGRPIRFL (human cytomegalovirus gH CTL epitope peptide) | – | − (− = 0-50%) | –
40 | VYALPLKML | – | − (− = 0-50%) | –
41 | VYLFSLVVL (human cytomegalovirus US3 CTL epitope peptide) | – | − (− = 0-50%) | –
42 | VYVTVDCNL (human cytomegalovirus US2 CTL epitope peptide) | – | − (− = 0-50%) | –
43 | VYYTSAFVF | – | − (− = 0-50%) | –
44 | WPRERAWALKNPHLAYNPFR (human cytomegalovirus pp150 CTL epitope peptide) | – | – | ELISPOT Responses (SFC/10^6 PBMC) ([1]; donor twelve): RE(83) SFC/10^6 PBMC; Responding cells (% CD8) (CD8+ T cells; donor twelve): 0.27%; Responding cells (% CD4) (CD4+ T cells; donor twelve): 0.03%; CTL response [2]: Y
45 | YLMDELRYVK (human cytomegalovirus gH CTL epitope peptide) | − (− = 0-50%) | – | –
46 | YPSAAERKHRHLPVADAVIH | – | – | ELISPOT Responses (SFC/10^6 PBMC) ([1]; donor delta): SE(350) SFC/10^6 PBMC; Responding cells (% CD8) (CD8+ T cells; donor delta): 0.313%; Responding cells (% CD4) (CD4+ T cells; donor delta): 0%; CTL response [2]: Y
47 | YYTSAFVFPTKDVALRHVVC | – | – | ELISPOT Responses (SFC/10^6 PBMC) ([1]; donor eight): JW(858) SFC/10^6 PBMC; ELISPOT Responses (SFC/10^6 PBMC) ([1]; donor seven): 775 SFC/10^6 PBMC; ELISPOT Responses (SFC/10^6 PBMC) ([1]; donor two): 358 SFC/10^6 PBMC; Responding cells (% CD8) (CD8+ T cells; donor two): 0.04%; Responding cells (% CD4) (CD4+ T cells; donor two): 0.05%; CTL response [2]: Y
48 | YYVFHMPRCL (human cytomegalovirus gH CTL epitope peptide) | – | − (− = 0-50%) | –
